According to patent publication US4005206A, “[9H]-Pyrido-[3,4-b]-indoles” (Roussel-UCLAF, priority 1976, dated 1977):
Values after ≈ are worked out from the molar mass of the structure shown. Structures can show the parent of a compound that is named as a salt.

How the values were obtained:
[1] = tested on: rigidity provoked by reserpine; experiment: Antagonism to reserpinic rigidity (electromyogram); type: in vivo, rats; set-up: key to Antagonism to reserpine rigidity: The results were expressed by an increasing number of + sign; ++: The results were expressed by an increasing number of + sign; conditions: for Antagonism to reserpine rigidity: 20 mg/kg i.v., 30 minutes after 10 mg/kg i.v. reserpine, EMG, rats; for activity against reserpine rigidity (in words): dose of 20 mg/kg
Description: 3. Antagonism to reserpinic rigidity
This test was effected on rats using the procedure of Jurna I. [Arch. Pharmak. Exp. Path., Vol. 260 (1968), p. 80-88] wherein the electromyogram (EMG) caused by a dorsiflexion due to the shock of the foot by electrodes placed against the muscles of the front portion of the rear paw of the animal. A dose of 10 mg/kg of reserpine was intravenously administered and then 30 minutes later when the hypertonicity of the muscle was the maximum, the test product was intravenously administered at a dose of 20 mg/kg. The inhibition was observed by the electromyogram showing the antagonism exercised by the test product against the rigidity provoked by reserpine.

[2] = Acute toxicity; conditions: mouse, in vivo, ip; intraperitoneal, mice, mortality 48 hours later; read-out: Approximate DL50 (50% lethal dose)
Description: The 50% lethal dose (DL50) was determined by intraperitoneal administration of the products to mice and the mortality was determined 48 hours later.

[3] = tested on: serotonine-provoked contraction of guinea pig ileon; experiment: Antiserotonine activity on isolated ileon; type: cell-based; conditions: for IC50: Cavia porcellus, isolated guinea pig ileon, Tyrode liquid 37° C, contact time one minute, read-out: IC50 (approximate 50% inhibiting concentration, contraction by serotonine)
Description: Serotonine provokes contraction of a certain number of smooth muscles and especially guinea pig ileon and antiserotonine activity is determined in vitro on the isolated ileon of the guinea pig immersed in oxygenated Tyrode liquid at 37° C. The activity of the antagonist is measured by the concentration thereof which after a contact time of one minute diminishes by about 50% the contraction of a portion of ileon when a standard dose of serotonine is added to the Tyrode liquid. The approximate 50% inhibiting concentration (IC50) was determined in micrograms per ml and the results are in Table IV.

[4] = tested on: amytal-induced sleep; experiment: Potentialization of sleeping time (amytal); type: in vivo, female mice; conditions: for minimal effective dose: Mus musculus, ip, 1 h, i.p. one hour before 80 mg/kg i.v. amytal, female mice 18 to 22 g, 25° C, read-out: DE50 (minimum dose for significantly prolonging the duration of sleep); for neurosedative activity (in words): conclusion from Table II
Description: 2. Potentialization of sleeping time
This test was effected with amytal (5-ethyl-5-isoamyl-barbituric acid) on groups of female mice weighing 18 to 22 g and held at 25° C for the duration of the test. The test products were administered intraperitoneally at different does one hour before the intravenous administration of 80 mg/kg of amytal and the time of sleep was recorded as the suspending time for the straighting reflex of the mice as negative.

[5] = tested on: platelet aggregation caused by collagen; experiment: Platelet aggregation caused by collagen (turbidimetric method of Born); type: cell-based, rabbit; conditions: for IC50: Oryctolagus cuniculus, rabbit platelet-rich plasma, 40 μg/ml collagen, read-out: IC50 (dose which inhibited by 50% the aggregation caused by collagen); for activity against platelet aggregation caused by collagen (in words): conclusion in words
Description: Platelet aggregation is effected with a Mustard aggregometer using the turbidimetric method of Born [J. Physiol., Vol. 168 (1963), p. 178-195] which consists of measuring the variation in transmission of a light ray or beam passing through a tube containing a plasma rich in platelets. When the aggregates are formed, the amount of light transmitted is greater and the optical density is diminished. The platelets used are obtained from rabbit plasma and the agent inducing the aggregation was 40 μg/ml of collagen. The 50% inhibiting concentration (IC50) was determined for each product which was the dose which inhibited by 50% the aggregation caused by collagen.

[6] = tested on: toxicity of the amphetamine group (dexamphetamine sulfate); experiment: Antagonism toward amphetamine type (dexamphetamine-induced mortality); type: in vivo, male mice; conditions: for ED50: Mus musculus, ip, i.p. one hour before 15 mg/kg i.p. dexamphetamine sulfate, mortality at 4 hours, male mice, read-out: DE50 (dose which reduced by 50% the number of dead animals); for antagonism with respect to the toxicity of the amphetamine group (in words): conclusion from Table I
Description: 1. Antagonism toward amphetamine type
The antagonism of the compounds with regard to amphetaminic group was studied on groups of 10 male mice which received intraperitoneally 15 mg/kg of dexamphetamine sulfate one hour after the intraperitoneal administration of the test compound.
The mortality per group was totally counted 4 hours after the administration of dexamphetamine sulfate and the DE50 dose which reduced by 50% the number of dead animals was determined as shown in Table I.

Structure (SMILES)	Antagonism to reserpine rigidity [1]	activity against reserpine rigidity (in words) [1]	LD50 at 48 h [2]	IC50 [3]	minimal effective dose [4]	neurosedative activity (in words) [4]	IC50 [5]	ED50 [6]	antagonism with respect to the toxicity of the amphetamine group (in words) [6]	activity against platelet aggregation caused by collagen (in words) [5]	antiserotonine activity (in words) ([3]; conclusion in words)
COc1ccc2[nH]cc(CC3NCCc4c3[nH]c3ccc(OC)cc43)c2c1 (centres unmarked) [Example 1, 1-(5'-methoxy-3'-indolyl-methyl)-6-methoxy-1,2,3,4-tetrahydro[9H]-pyrido-[3,4-b]-indole-hydrochloride]	++	very active	150 mg/kg	0.5 mg/L	10 mg/kg	very important neurosedative activity	–	–	–	–	–
COc1ccc2[nH]cc(CC3NCCc4c3[nH]c3ccc(O)cc43)c2c1 (centres unmarked) [Example 2, 1-(5'-methoxy-3'-indolyl-methyl)-6-hydroxy-1,2,3,4-tetrahydro[9H]-pyrido-[3,4-b]-indole]	–	–	200 mg/kg	0.5 to 1 mg/L (≈ 1.44 to 2.88 µM)	50 mg/kg	–	–	–	–	–	–
COc1ccc2[nH]c3c(c2c1)CCNC3Cc1c[nH]c2ccccc12 (centres unmarked) [Example 3, 1-(3'-indolylmethyl)-6-methoxy-1,2,3,4-tetrahydro-[9H]-pyrido-[3,4-b]-indole hydrochloride]	+	–	350 mg/kg	1 mg/L	–	–	–	–	–	–	–
Clc1ccc2[nH]cc(CC3NCCc4c3[nH]c3ccccc43)c2c1 (centres unmarked) [Example 4, 1-(5'-chloro-3'-indolyl-methyl)-1,2,3,4-tetrahydro-[9H]-pyrido-[3,4-b]-indole hydrochloride]	–	–	500 mg/kg	–	50 mg/kg	–	–	–	–	–	–
COc1ccc2[nH]cc(CC3NCCc4c3[nH]c3ccccc43)c2c1 (centres unmarked) [Example 5, 1-(5'-methoxy-3'-indolyl-methyl)-1,2,3,4-tetrahydro-[9H]pyrido-[3,4-b]-indole-hydrochloride]	++	very active	150 mg/kg	2 mg/L	50 mg/kg	–	~100 µM	–	–	–	–
Oc1ccc2[nH]c3c(c2c1)CCNC3Cc1c[nH]c2ccccc12 (centres unmarked) [Example 6, 6-hydroxy-1-(3'-indolyl-methyl)-1,2,3,4-tetrahydro [9H]pyrido-[3,4-b]-indole-fumarate]	–	–	150 mg/kg	2 mg/L (≈ 6.3 µM)	20 mg/kg	–	–	35 mg/kg	important antagonism	important activity	–
Clc1ccc2[nH]c3c(c2c1)CCNC3Cc1c[nH]c2ccccc12 (centres unmarked) [Example 7, 6-chloro-1-(3'-indolylmethyl)-1,2,3,4-tetrahydro-[9H]-pyrido-[3,4-b]-indole]	–	–	150 mg/kg	1 to 2 mg/L (≈ 2.98 to 5.96 µM)	10 mg/kg	very important neurosedative activity	–	20 mg/kg	important antagonism	–	–
Oc1ccc2[nH]cc(CC3NCCc4c3[nH]c3ccccc43)c2c1 (centres unmarked) [Example 9, 1-(5'-hydroxy-3'-indolyl-methyl)-1,2,3,4-tetrahydro-[9H]-pyrido-[3,4-b]-indole-hydrochloride]	–	–	–	0.1 to 0.2 mg/L	–	–	1 µM	50 mg/kg	–	important activity	important antiserotonine activity
c1ccc(COc2ccc3[nH]cc(CC4NCCc5c4[nH]c4ccc(OCc6ccccc6)cc54)c3c2)cc1 (centres unmarked) [Example 10, 1-(5'-benzyloxy-3' -indolylmethyl)-6-benzyloxy-1,2,3,4-tetrahydro-[9H]-pyrido-[3,4-b]-indole-hydrochloride]	–	–	300 mg/kg	–	–	–	–	–	–	–	–
